{"source": "patent US9820923B2", "about": "“Succinate derivatives” (Symrise AG, priority 2013, dated 2017)", "key": {"[1]": {"system": "Heme Oxygenase-1", "test": "Cellular in vitro heme oxygenase-1 expression assay on NHDF (Western blot)", "assay_type": "cell-based, human", "details": "24 h, 0.0134% b.w.", "description": "NHDF (normal human dermal fibroblasts) cells were disseminated in a 6-well plate in a concentration of 2×10^5 cells/well (DMEM, 10% FCS). After cultivation in fully enriched medium (DMEM, 10% FCS) for 72 h at 37° C. and 5% CO2, the serum content was reduced to 0.1% to synchronize the cell cycle. Various concentrations of the test substances, the negative control (untreated cells) and tert. butylhydrochinon as positive control, are added and incubated for a further 24 h. The maximum concentration of the test substances used corresponds to 0.2 times the value of the IC20 of the cytotoxicity assay. After cell lysis, the protein amount was determined using the Biorad BCA assay. All samples were adjusted to the same protein level before application on a fast Criterion Gel (Biorad) to perform electrophoresis for 20 minutes at 300 V. Thereafter the proteins were transferred to a PVDF membrane on a semi-dry blotter (30 minutes, 25 V). The blotted membrane is blocked for 4 hours in a 5% milk powder solution in TBST at 4° C. After washing, the membrane is incubated with the first antibody solution HO-1 from abcam (1:500 in 1% milk powder in TBST) over night. […] The resulting band pattern is detected with a chemiluminescence sensitive camera system (Vil-ber Loumat). The quantification was done by densitometry, using the Image J freeware software."}, "[2]": {"system": "Hyaluronic acid", "test": "Cellular in vitro hyaluronic acid assay on NHDF (competitive ELISA)", "assay_type": "cell-based, human", "details": "72 h", "description": "NHDF (normal human dermal fibroblasts) cells were disseminated in a 96-well microtiter plate in a concentration of 2×10^4 cells/well (DMEM, 10% FCS). After cultivation in fully enriched medium (DMEM, 10% FCS) for 72 h at 37° C. and 5% CO2, the serum content was reduced to 0.1% to synchronize the cell cycle and incubated for further 24 h. Various concentrations of the test substances and TGF-beta1 as internal standard are added and incubated for 72 h. The maximum concentration of the test substances used corresponds to 0.2 times the value of the IC20 of the cytotoxicity assay. Hyaluronic acid is quantified by a competitive ELISA (TECOmedical TE1017).\nThe percent bound for each standard and unknown substance is calculated using the following equation: […]\nA standard curve is generated by plotting the aborptions of the given concentrations in a linear proportion. The gradient of the line is determined and the value of the substances calculated as follows: • 1. value=1/RFU • 2. value=((1. value)−b)/m) • Compound of Hyaluronic acid [ng/ml]=2. value*dilution"}, "[3]": {"system": "HHFSC (Human Hair Follicle Stem Cells)", "test": "Cellular in vitro stem cell protection assay (UVB-induced apoptosis, caspase 3/7)", "assay_type": "cell-based", "details": "light or radiation study, 25 mJ/cm^2 UVB, read-out: Inhibition of UV induced apoptosis [%]", "description": "HHFSC (Human Hair Follicle Stem Cells) isolated from hair follicle bulge (Celprogen) were cultivated in culture ware pre-coated with Human Hair Follicle Stem Cell Extra-cellular Matrix (Celprogen). The cells were incubated 2 h prior to and 16 h after UVB irradiation with test compounds. Cells were irradiated with 25 mJ/cm^2 UVB in the presence of buffer solution. Apoptosis induction was evaluated by caspase 3/7 protein expression (Caspase-Glo 3/7, Promega) and quantified by chemiluminescence measurement.\nThe inhibition of apoptosis induction in the presence of test substances was calculated according to the following equation: […]\nThe abbreviations have the following meanings: • RLU test substance: • RLU of the wells with test substance and with UVB irradiation • RLU control: • RLU of the wells without test substance, but with UVB irradiation • RLU control without UVB: • RLU of the wells without test substance and without UVB irradiation"}, "[4]": {"system": "B16V mouse melanoma cells", "test": "Depigmentation effect on melanoma cell cultures", "assay_type": "cell-based", "details": "0.6 mM tyrosine and 10 nM MSH, 96 h, read-out: IC50 (Inhibition of pigmentation)", "description": "B16V mouse melanoma cells are disseminated in a 96-well micro-titre plate in a concentration of 7.5×10^3 cells/well. After cultivation for 24 h at 37° C. and 5% CO2 in RPMI medium, enriched with 10% foetal calf serum, various concentrations of the test substances and 0.6 mM tyrosine and 10 nM-MSH (-melanocyte stimulating hormone) are added and incubated for a further 96 h. The maximum concentration of the test substances used corresponds to 0.1 times the value of the IC20 value of the cytotoxicity assay. Only tyrosine and -MSH are added to the controls. After incubation, sodium hydroxide solution (final concentrations: 1 M) is added to the culture medium and the absorption (A) is measured after 3 h at 400 nm.\nThe inhibition of pigmentation in the presence of the test compounds was calculated using the following equation: Inhibition of pigmentation (%)=100−[(Atest compound/Acontrol)×100] wherein • Atest compound=absorption of the wells with test substance and with cells • Acontrol=absorption of the wells without test substance, but with cells\nFrom the inhibition of pigmentation (%) in a series of dilutions of test compounds, the IC50 for each test compound is calculated. This is the concentration of a test compound at which pigmentation is inhibited by 50%."}, "[5]": {"system": "Primary human dermal fibroblasts", "test": "Cellular in vitro DCF assay (intracellular ROS)", "assay_type": "cell-based", "parameters": "unit of the concentration uncertain", "description": "Primary human dermal fibroblasts (Lonza) are disseminated in a 96-well microtiter plate in a concentration of 1×10^4 cells/well (DMEM, 10% FKS). After cultivation in fully enriched medium (DMEM, 10% FCS) for 24 h at 37° C. and 5% CO2, the serum content was reduced to 0.1% for further 24 h to synchronize the cell cycle. Confluence was supposed to be around 70% at the time, the incubation with the test substances began. Various concentrations of the test substances, two backgrounds (untreated cells), control (possible with solvent) and Trolox as internal standard (1000 μM) were applied to the cells in DMEM and incubated for further 18-20 h. […], 100 μl H2DCF-DA-solution (2,7-Dichlorfluorescein, 10 μM) incl. DAPI (1:1000) was added to all samples (excluded the background-control) and incubated for one hour to de-esterify the H2DCF-DA by cellular esterases. The resulting H2DCF was thereby trapped inside the cell. After the incubation, the cells were washed and the prooxidant challenge was set (1 mM, 1 h). The resulting fluorescence was read at Ex 504 nm; Em 524 nm. An increased level of ROS (reactive oxygen species) led to an increased amount of fluorescence.\nResults are mean values from 2 independent experiments with quadruple determinations each.\nThe inhibition of the oxidation in the presence of test substances was calculated according to the following equation: […]\nThe abbreviations have the following meanings: • RFU DAPI: Relative fluorescence units (Ex 380/20, Em 440/40) of the wells with test substance, DAPI and DCF treatment, with cells • RFU DCF: Relative fluorescence units (Ex 485/20, Em 528/20) of the wells with test substance, DAPI and DCF treatment, with cells • RFU control: Relative fluorescence units of the wells without test substance, DAPI and DCF treatment, with cells (The control was calculated like the other samples.) • RFU BLANK: Relative fluorescence units of the wells without test substance, without DAPI and DCF treatment but with cells"}}, "note": "pIC50: −log10 of the molar value.", "data": [{"smiles": "CC1CC(OC(=O)CCC(=O)N(C)C)CC(C)(C)C1", "note": "(stereo not shown) [S7a/S7b**]", "values": [{"measurement": "Up-regulation (HO1-Amount relative to control)", "setting": "[1]", "result": "14.5-fold"}, {"measurement": "Stimulation (Hyaluronic acid stimulation relative to control)", "setting": "[2]; 0.00012 % b.w.", "result": 34.4, "unit": "%"}, {"measurement": "Stimulation (Hyaluronic acid stimulation relative to control)", "setting": "[2]; 0.00120 % b.w.", "result": 67.3, "unit": "%"}, {"measurement": "inhibition at 20 µM", "setting": "[3]; 0.02 mM", "result": 5, "unit": "%"}, {"measurement": "inhibition at 200 µM", "setting": "[3]; 0.20 mM", "result": 32, "unit": "%"}, {"measurement": "pIC50", "setting": "[4]", "result": 4.74}, {"measurement": "Intracellular ROS reduction [%]", "setting": "[5]; concentration 1 (unit uncertain)", "result": "−2", "unit": "%"}, {"measurement": "Intracellular ROS reduction [%]", "setting": "[5]; concentration 10 (unit uncertain)", "result": 11, "unit": "%"}, {"measurement": "Intracellular ROS reduction [%]", "setting": "[5]; concentration 50 (unit uncertain)", "result": 16.3, "unit": "%"}, {"measurement": "Intracellular ROS reduction [%]", "setting": "[5]; concentration 100 (unit uncertain)", "result": 19.5, "unit": "%"}]}]}
